{
  "source": "ChEMBL document CHEMBL4800731",
  "about": "“Data for DCP probe JNJ-65355394” (2021)",
  "key": {"[1]": {"target": "Neuropeptide Y receptor type 1 (Homo sapiens) (UniProt P25929)", "sequence (P25929 whole entry)": "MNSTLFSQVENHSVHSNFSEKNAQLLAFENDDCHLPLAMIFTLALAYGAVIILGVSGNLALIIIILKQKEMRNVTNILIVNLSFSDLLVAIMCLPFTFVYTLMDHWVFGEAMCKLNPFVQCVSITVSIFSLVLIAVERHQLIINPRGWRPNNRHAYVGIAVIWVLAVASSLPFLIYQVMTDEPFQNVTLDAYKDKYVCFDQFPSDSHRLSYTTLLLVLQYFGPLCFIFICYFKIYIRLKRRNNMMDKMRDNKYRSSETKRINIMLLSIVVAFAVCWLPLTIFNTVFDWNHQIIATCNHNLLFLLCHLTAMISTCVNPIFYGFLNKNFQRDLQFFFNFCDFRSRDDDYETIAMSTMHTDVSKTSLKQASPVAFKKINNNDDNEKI", "assay": "hNPY1 Cerep panel"}, "[2]": {"target": "Adenosine receptor A2a (Homo sapiens) (UniProt P29274)", "sequence (P29274 whole entry)": "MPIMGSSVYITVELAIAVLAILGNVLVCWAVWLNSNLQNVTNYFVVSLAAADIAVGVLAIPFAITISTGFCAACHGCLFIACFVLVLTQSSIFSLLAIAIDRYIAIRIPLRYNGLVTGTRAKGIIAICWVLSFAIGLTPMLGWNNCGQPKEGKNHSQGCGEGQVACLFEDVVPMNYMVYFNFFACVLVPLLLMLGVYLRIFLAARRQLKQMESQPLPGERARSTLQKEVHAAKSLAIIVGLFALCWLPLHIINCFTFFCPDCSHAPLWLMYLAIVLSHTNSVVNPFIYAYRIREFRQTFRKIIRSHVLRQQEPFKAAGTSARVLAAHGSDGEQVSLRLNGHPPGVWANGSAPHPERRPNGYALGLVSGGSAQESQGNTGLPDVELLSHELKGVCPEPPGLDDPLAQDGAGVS", "assay": "hA2A Cerep panel"}, "[3]": {"target": "B2 bradykinin receptor (Homo sapiens) (UniProt P30411)", "assay": "hBK2 Cerep panel"}, "[4]": {"target": "Mu-type opioid receptor (Homo sapiens) (UniProt P35372)", "sequence (P35372 whole entry)": "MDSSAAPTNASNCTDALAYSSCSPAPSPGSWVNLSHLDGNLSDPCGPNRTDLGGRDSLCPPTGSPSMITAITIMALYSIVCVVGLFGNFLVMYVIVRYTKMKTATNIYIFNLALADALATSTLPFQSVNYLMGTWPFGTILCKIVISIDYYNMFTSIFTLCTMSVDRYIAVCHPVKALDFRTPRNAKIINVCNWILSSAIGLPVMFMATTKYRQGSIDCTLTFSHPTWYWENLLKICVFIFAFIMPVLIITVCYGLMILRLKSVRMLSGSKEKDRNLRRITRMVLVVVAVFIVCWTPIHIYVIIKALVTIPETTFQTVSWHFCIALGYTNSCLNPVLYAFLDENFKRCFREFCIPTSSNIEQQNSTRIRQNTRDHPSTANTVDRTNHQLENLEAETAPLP", "assay": "hOP3 Cerep panel"}, "[5]": {"target": "Cholecystokinin receptor type A (Homo sapiens) (UniProt P32238)", "sequence (P32238 whole entry)": "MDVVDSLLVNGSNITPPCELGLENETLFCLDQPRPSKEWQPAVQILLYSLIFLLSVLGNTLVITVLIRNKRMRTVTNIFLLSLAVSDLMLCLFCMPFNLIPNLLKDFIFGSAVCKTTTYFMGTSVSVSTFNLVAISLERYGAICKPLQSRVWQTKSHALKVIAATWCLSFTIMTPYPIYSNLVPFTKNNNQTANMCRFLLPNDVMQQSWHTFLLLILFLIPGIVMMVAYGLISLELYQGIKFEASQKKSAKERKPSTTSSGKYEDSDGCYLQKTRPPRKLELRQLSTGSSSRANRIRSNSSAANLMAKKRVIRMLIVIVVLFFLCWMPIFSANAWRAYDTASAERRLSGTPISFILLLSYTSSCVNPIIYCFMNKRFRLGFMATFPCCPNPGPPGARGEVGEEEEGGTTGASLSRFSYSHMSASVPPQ", "assay": "hCCKA Cerep panel"}, "[6]": {"target": "T1, Muscarinic acetylcholine receptor M1 (Homo sapiens) (UniProt P11229)", "T1 sequence (whole entry)": "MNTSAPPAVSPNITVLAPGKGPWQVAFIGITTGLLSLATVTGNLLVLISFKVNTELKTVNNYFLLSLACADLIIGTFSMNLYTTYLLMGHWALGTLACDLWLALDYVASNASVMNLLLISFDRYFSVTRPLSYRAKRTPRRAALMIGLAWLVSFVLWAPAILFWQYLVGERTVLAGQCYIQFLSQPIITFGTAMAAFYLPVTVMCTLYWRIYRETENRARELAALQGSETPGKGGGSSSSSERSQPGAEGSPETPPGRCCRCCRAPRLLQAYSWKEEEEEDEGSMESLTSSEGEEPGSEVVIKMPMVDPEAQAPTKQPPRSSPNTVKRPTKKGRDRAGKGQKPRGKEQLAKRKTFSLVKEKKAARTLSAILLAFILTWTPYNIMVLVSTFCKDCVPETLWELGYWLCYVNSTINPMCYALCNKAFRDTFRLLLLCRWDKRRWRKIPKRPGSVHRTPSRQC", "assay": "hM1 Cerep panel"}, "[7]": {"target": "Galanin receptor type 2 (Homo sapiens) (UniProt O43603)", "sequence (O43603 whole entry)": "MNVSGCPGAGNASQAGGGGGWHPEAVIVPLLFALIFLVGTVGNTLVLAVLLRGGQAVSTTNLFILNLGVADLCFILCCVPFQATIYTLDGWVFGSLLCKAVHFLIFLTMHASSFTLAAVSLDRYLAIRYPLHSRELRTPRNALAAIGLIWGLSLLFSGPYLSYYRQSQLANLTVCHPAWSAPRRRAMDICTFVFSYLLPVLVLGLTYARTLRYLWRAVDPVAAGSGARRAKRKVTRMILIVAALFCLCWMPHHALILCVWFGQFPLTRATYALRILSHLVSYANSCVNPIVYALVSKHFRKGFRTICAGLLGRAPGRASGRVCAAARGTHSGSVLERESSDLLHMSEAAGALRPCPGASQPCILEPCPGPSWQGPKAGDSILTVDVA", "assay": "hGAL2 Cerep panel"}, "[8]": {"target": "Kappa-type opioid receptor (Rattus norvegicus) (UniProt P34975)", "assay": "rOP2 Cerep panel"}, "[9]": {"target": "T2, 5-hydroxytryptamine receptor 3A (Homo sapiens) (UniProt P46098)", "T2 sequence (whole entry)": "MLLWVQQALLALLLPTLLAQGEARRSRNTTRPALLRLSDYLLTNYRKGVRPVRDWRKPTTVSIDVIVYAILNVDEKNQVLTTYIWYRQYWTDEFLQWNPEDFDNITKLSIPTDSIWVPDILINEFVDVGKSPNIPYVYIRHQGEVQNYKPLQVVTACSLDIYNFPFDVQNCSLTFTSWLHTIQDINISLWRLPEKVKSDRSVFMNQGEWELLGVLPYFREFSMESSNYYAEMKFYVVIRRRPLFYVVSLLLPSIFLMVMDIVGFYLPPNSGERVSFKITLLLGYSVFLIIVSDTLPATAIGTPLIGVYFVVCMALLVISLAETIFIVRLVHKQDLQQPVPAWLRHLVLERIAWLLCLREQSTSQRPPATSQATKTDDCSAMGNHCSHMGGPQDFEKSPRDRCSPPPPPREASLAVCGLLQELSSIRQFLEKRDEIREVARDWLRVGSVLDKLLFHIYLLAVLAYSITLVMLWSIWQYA", "assay": "h5HT3 Cerep panel"}, "[10]": {"target": "Type-1 angiotensin II receptor (Homo sapiens) (UniProt P30556)", "sequence (P30556 whole entry)": "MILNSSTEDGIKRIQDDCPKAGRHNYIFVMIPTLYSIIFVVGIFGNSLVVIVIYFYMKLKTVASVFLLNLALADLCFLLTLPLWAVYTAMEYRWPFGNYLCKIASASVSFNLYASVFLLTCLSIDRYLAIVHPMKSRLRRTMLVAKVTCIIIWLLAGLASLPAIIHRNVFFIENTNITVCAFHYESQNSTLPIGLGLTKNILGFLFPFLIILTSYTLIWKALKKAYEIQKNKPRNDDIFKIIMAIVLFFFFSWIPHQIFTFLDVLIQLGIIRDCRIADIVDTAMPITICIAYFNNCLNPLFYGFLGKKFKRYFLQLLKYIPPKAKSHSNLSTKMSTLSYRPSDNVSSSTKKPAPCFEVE", "assay": "hAT1 Cerep panel"}, "[11]": {"target": "Adenosine receptor A3 (Homo sapiens) (UniProt P0DMS8)", "sequence (P0DMS8 whole entry)": "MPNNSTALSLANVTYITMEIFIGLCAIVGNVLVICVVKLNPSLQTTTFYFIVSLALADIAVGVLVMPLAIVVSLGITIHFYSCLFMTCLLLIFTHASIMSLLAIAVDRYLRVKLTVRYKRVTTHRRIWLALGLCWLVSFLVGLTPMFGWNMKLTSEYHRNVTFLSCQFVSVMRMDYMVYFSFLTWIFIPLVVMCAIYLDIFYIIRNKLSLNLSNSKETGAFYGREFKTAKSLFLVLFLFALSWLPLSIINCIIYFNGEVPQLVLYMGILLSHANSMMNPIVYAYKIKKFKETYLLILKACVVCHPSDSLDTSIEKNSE", "assay": "hA3 Cerep panel"}, "[12]": {"target": "Alpha-1A adrenergic receptor (Rattus norvegicus) (UniProt P43140)", "sequence (P43140 whole entry)": "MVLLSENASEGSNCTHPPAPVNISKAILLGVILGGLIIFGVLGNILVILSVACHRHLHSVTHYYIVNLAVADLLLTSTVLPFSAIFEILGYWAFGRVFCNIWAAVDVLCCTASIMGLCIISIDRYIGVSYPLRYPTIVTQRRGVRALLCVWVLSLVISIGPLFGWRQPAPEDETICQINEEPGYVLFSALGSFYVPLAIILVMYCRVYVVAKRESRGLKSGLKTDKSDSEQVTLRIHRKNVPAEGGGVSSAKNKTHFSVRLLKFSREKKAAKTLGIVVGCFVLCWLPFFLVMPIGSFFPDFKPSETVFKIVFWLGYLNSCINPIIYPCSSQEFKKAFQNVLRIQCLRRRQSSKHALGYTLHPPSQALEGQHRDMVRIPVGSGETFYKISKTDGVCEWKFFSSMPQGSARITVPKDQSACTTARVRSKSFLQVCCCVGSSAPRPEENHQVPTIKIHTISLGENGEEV", "assay": "rAa1 Cerep panel"}, "[13]": {"target": "Delta-type opioid receptor (Homo sapiens) (UniProt P41143)", "sequence (P41143 whole entry)": "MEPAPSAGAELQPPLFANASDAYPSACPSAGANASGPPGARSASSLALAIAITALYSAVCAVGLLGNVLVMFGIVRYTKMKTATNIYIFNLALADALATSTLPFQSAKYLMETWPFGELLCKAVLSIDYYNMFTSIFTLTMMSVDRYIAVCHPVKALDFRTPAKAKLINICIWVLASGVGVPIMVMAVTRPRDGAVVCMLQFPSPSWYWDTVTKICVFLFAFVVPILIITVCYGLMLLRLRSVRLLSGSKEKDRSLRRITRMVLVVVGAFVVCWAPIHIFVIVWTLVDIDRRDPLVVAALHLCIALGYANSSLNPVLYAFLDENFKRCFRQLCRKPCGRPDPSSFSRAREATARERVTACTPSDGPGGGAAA", "assay": "hOP1 Cerep panel"}, "[14]": {"target": "5-hydroxytryptamine receptor 1E (Homo sapiens) (UniProt P28566)", "sequence (P28566 whole entry)": "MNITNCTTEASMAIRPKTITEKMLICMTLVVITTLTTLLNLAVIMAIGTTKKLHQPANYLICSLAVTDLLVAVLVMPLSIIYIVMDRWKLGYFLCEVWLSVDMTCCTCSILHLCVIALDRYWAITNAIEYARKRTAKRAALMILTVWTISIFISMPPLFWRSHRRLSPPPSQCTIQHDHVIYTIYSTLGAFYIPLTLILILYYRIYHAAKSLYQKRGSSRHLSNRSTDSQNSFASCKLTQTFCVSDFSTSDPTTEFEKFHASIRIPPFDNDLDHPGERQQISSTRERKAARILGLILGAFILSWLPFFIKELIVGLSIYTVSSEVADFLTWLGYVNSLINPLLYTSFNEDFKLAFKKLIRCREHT", "conditions": "Compound concentration 10.0 uM"}, "[15]": {"target": "D(1A) dopamine receptor (Homo sapiens) (UniProt P21728)", "sequence (P21728 whole entry)": "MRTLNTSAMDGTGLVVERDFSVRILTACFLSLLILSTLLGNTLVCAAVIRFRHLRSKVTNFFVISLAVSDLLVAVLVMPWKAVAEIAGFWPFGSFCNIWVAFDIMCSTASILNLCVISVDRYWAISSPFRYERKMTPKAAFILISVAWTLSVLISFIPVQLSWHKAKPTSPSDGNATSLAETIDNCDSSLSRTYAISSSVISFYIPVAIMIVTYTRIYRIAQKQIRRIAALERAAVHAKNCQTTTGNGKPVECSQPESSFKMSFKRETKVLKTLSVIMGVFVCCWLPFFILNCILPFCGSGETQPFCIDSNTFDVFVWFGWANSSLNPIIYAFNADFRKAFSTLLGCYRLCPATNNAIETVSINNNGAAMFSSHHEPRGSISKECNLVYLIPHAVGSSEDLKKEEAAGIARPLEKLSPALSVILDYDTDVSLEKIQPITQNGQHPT", "conditions": "Compound concentration 10.0 uM"}, "[16]": {"target": "Beta-3 adrenergic receptor (Homo sapiens) (UniProt P13945)", "sequence (P13945 whole entry, looked up)": "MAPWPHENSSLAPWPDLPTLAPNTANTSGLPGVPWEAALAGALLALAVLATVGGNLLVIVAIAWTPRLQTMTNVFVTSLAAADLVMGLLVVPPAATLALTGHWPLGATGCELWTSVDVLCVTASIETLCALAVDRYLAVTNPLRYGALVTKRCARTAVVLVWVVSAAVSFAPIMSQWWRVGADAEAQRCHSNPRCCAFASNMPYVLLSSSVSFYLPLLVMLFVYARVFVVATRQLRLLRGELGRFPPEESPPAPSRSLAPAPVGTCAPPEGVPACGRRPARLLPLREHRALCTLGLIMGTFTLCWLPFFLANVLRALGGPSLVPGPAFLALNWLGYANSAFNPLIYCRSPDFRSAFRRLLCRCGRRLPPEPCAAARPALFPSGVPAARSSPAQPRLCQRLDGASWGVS", "conditions": "Compound concentration 10.0 uM"}},
  "data": [
    {"smiles": "CC(=O)Nc1ncc(CN2CCC[C@H](Cc3cc(C)nc(C)c3)C2)s1", "note": "[JNJ-65355394]", "values": [
      {"measurement": "effect", "setting": "[1]", "result": -7.35, "unit": "%"},
      {"measurement": "effect", "setting": "[2]", "result": 4.9, "unit": "%"},
      {"measurement": "effect", "setting": "[3]", "result": 10.8, "unit": "%"},
      {"measurement": "effect", "setting": "[4]", "result": 55.4, "unit": "%"},
      {"measurement": "effect", "setting": "[5]", "result": -22, "unit": "%"},
      {"measurement": "effect", "setting": "[6]", "result": 32.5, "unit": "%"},
      {"measurement": "effect", "setting": "[7]", "result": 1.4, "unit": "%"},
      {"measurement": "effect", "setting": "[8]", "result": 77.8, "unit": "%"},
      {"measurement": "effect", "setting": "[9]", "result": 1.85, "unit": "%"},
      {"measurement": "effect", "setting": "[10]", "result": -3.05, "unit": "%"},
      {"measurement": "effect", "setting": "[11]", "result": 16, "unit": "%"},
      {"measurement": "effect", "setting": "[12]", "result": 19.5, "unit": "%"},
      {"measurement": "effect", "setting": "[13]", "result": 20.4, "unit": "%"}
    ]},
    {"smiles": "CC(=O)Nc1nc(CN2CCC[C@H](Cc3cc(C)nc(C)c3)C2)cs1", "note": "[JNJ-73924149]", "values": [
      {"measurement": "inhibition", "setting": "[14]", "result": 0.93, "unit": "%"},
      {"measurement": "inhibition", "setting": "[15]", "result": 10.7, "unit": "%"},
      {"measurement": "inhibition", "setting": "[16]", "result": -8.59, "unit": "%"}
    ]}
  ]
}
